The term pEC50 denotes the negative decadic logarithm of the EC50, by convention in mol/L.

SMILES strings stand for the structures. pEC50: −log10 of the molar value. Where two headings read alike, the source gives them in different places.

Here are results for nine compounds from patent US8003660B2, “Modulators of muscarinic receptors” (Vertex Pharmaceuticals Incorporated, priority 2006, dated 2011).

Assay type in all cases: cell-based
One test concerns the target T1, M1 muscarinic receptor (Homo sapiens, UniProt P11229).
T1 construct: expressed in transfected cells; host or cells: CHO (M1-CHO)
T1 sequence (P11229 1-460): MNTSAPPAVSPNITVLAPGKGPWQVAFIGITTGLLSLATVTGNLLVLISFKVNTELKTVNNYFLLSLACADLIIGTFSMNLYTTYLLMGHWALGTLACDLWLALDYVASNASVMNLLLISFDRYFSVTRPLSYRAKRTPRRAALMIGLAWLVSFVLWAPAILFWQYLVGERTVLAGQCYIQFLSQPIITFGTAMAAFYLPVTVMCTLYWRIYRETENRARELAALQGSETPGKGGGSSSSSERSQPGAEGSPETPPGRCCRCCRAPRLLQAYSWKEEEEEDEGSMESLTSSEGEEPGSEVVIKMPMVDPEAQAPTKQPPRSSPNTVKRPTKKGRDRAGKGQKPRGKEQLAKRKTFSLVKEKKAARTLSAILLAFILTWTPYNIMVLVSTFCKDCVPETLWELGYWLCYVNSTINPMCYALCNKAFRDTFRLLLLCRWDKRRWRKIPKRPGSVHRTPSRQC
The experiment in a line: Functional mobilization of intracellular calcium (FLIPR) in CHO cells expressing M1. The conditions noted are these: for pEC50: CHO cells expressing M1, FLIPR calcium; for Emax: CHO; for M1 Activity: CHO cells expressing M1, FLIPR calcium assay. The method, then:
(§1) Functional Mobilization of Intracellular Calcium to Determine Muscarinic Receptor Activity:
(§2) CHO cells expressing muscarinic receptors (M1 to M5) are grown as monolayers in tissue culture flasks at 37° C. in a humidified atmosphere containing 5% CO2 and passaged every 3-5 days. The growth media is Dulbecco's modified eagles medium (DMEM, Gibco Cat# 12430-054), containing 25 mM Hepes and supplemented with Fetal Bovine Serum (Hyclone, cat# SH30071.03), 0.1 mM of MEM non-essential amino acids (GIBCO, Cat# 11140-050), 1 mM MEM Sodium Pyruvate (GIBCO Cat# 11360-070) and 100 units/ml of Penicillin G and 100 μg/ml of Streptomycin (GIBCO Cat# 15140-122). The recombinant muscarinic receptor cell lines are grown under antibiotic pressure with media containing 25 μg/ml zeocin and 500 μg/ml G418 (M1-CHO), 4 μg/ml puromycin, 50 μg/ml zeocin and 2.5 μg/ml blasticidin (M2 and M4-CHO) or 50 μg/ml zeocin and 4 μg/ml puromycin (M3 and M5-CHO).
(§3) Cells are harvested at 80-90% confluence using Versene (GIBCO Cat# 15040-066), collected by centrifugation and seeded 18-24 hrs prior to running the calcium assay at a density of 5,000-10,000 cells/well in […], clear-bottomed 384-well plates (BD Biocoat, poly-D-lysine, Cat#356663). The day of the experiment, the cells are washed with a plate washer (Bioteck Instruments, ELX 405) using bath 1 buffer (140 mM NaCl, 4,5 mM KCl, 2 mM CaCl2, 1 mM MgCl2, 10 mM Hepes-Na, 10 mM Glucose, pH 7.4, with NaOH) containing 1 mM Probenecid. Next, the calcium dye Fluo-3 (25 μl/well of Fluo-3 AM at 4 μM, Molecular Probes F-1241, in Bath 1 buffer containing 1 mM Probenecid) is added to the 25 μl of Bath 1 remaining in each well after the plate wash and the dye is loaded at 37° C. in the tissue culture incubator for 60-90 min. The fluorescent dye is removed using the plate washer with Bath 1 containing 1 mM Probenecid, leaving 25 μl/well of this solution after the wash. Alternatively, cells can be loaded with the calcium indicator from Molecular Devices (Calcium 3 Assay Reagents, Cat #R7181) adding 5 μl of a 5× solution dye in Bath 1 containing 1 mM Probenecid (10 ml per dye flask cat#R7182 to generate a solution […]) to 20 μl of the same buffer. After loading for 60 min, the experiment can be run without having to remove the dye.
(§4) Compounds are prepared at a 2× fold concentration in a 96-well plate (round bottom, Costar Corning cat#3656), by reconstituting the pre-spotted compounds in bath 1 containing 1 mM probenecid. The final concentration DMSO is 0.5%, and the amount of DMSO is normalized across the assay plate. To determine an agonist action of the compounds on muscarinic receptors, the reconstituted compounds are added (25 μl compound/well) to the cell assay plate (containing 25 μl/well) using the multi-channel robotic system of the FLIPR 3 Instrument (Molecular Devices, Sunnyvale, Calif.). To determine a functional inhibitory action of the compounds on muscarinic receptors, the reconstituted compounds are added (25 μl compound/well) to the assay plate and pre-incubated for 15 min prior to adding 25 μl of Carbachol at 3× the EC80 for each muscarinic subtype. Alternatively, the compounds can be co-applied simultaneously with the agonist. In both assay modes, the fluorescence is recorded for 60 sec (excitation wavelength is […] and emission wavelength 540 nm) using the FLIPR 3 instrument.
(§5) The potency, efficacy and selectivity of the muscarinic compounds were evaluated by screening the compound activity across the whole family (M1 to M5 cells). Compounds were also screened for activity on other proteins such as other GPCRs and ion channels to determine selectivity on M4 receptors.

A further test addresses T2, M2 muscarinic receptor (Homo sapiens, UniProt P08172).
T2 construct: expressed in transfected cells; host or cells: CHO (M2-CHO)
T2 sequence (P08172 1-466): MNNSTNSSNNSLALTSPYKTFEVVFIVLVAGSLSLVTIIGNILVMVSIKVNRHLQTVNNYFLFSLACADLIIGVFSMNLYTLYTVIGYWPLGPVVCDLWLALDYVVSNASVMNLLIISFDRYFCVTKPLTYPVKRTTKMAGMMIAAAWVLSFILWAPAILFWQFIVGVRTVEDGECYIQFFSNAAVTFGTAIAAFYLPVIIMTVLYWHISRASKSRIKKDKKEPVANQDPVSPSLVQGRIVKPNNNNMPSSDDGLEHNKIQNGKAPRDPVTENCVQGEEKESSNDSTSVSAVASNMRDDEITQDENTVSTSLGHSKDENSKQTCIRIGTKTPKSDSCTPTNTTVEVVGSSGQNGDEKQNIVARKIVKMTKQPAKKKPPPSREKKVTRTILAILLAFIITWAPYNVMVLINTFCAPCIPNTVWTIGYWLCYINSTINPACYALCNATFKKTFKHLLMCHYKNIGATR
Put plainly: Functional mobilization of intracellular calcium (FLIPR) in CHO cells expressing M2. Conditions: for pEC50: CHO cells expressing M2, FLIPR calcium; for Emax: CHO; for M2 Activity: CHO cells expressing M2, FLIPR calcium assay. The method, then:
as §1, §2, §3, §4, §5

For a further test, the target named is T3, M3 muscarinic receptor (Homo sapiens, UniProt P20309).
T3 construct: expressed in transfected cells; host or cells: CHO (M3-CHO)
Put plainly: Functional mobilization of intracellular calcium (FLIPR) in CHO cells expressing M3. Conditions: for pEC50: CHO cells expressing M3, FLIPR calcium; for Emax: CHO. Here is the method:
as §1, §2, §3, §4, §5
A general note: A change in cytosolic calcium serves as a functional read-out for many receptors and channels.

In a further test the target is T4, M4 muscarinic receptor (Homo sapiens, UniProt P08173).
T4 construct: expressed in transfected cells; host or cells: CHO (M4-CHO)
T4 sequence (P08173 1-479): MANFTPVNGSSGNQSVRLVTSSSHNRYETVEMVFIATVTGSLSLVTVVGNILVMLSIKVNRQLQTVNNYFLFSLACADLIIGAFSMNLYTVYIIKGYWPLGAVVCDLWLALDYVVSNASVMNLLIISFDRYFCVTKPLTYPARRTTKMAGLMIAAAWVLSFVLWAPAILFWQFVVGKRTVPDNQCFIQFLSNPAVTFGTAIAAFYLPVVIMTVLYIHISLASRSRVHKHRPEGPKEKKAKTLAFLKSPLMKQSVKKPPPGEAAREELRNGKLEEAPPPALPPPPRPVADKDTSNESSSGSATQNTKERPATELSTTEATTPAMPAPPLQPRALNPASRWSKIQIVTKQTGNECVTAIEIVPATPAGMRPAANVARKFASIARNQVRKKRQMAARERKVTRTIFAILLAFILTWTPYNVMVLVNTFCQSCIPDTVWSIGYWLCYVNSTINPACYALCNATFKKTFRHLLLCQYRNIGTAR
Put plainly: Functional mobilization of intracellular calcium (FLIPR) in CHO cells expressing M4. Conditions: for pEC50: CHO cells expressing M4, FLIPR calcium; for Emax: CHO; for M4 Activity: CHO cells expressing M4, FLIPR calcium assay. The method, then: as §1, §2, §3, §4, §5

[1] abbreviates: 100% = maximum response obtained with the Carbachol control, read-out: M1 Efficacy.
Where [2] appears, read: 100% = maximum response obtained with the Carbachol control, read-out: M2 Efficacy.
Where [3] appears, read: 100% = maximum response obtained with the Carbachol control, read-out: M3 Efficacy.
[4] abbreviates: 100% = maximum response obtained with the Carbachol control, read-out: M4 Efficacy.
Where [5] appears, read: 100% efficacy = maximum response obtained with the Carbachol control.

T3 sequence (P20309 whole entry): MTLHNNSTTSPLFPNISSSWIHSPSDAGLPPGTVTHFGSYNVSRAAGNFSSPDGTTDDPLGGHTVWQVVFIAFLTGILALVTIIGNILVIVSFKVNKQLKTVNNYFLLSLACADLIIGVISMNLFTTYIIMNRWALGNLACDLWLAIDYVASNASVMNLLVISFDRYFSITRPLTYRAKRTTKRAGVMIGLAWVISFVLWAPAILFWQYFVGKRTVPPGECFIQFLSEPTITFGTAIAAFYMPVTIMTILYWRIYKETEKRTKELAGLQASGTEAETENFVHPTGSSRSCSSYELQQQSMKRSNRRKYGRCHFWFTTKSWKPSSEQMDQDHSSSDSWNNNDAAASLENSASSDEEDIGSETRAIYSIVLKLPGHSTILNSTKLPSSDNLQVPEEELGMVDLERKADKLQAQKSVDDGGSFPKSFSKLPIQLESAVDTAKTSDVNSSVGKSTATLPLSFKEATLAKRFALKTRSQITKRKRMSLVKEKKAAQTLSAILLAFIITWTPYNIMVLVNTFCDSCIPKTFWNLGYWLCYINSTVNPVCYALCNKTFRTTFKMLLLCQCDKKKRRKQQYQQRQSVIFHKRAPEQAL

For the compound `CCC(CC)N1CCC2(CC[C@H](NC(C)=O)c3ccccc32)CC1` [Compound No. 61, (S)N-(1′-(pentan-3-yl)-3,4-dihydro-2H-spiro[naphthalene-1,4′-piperidine]-4-yl)acetamide], the pEC50 on M1 muscarinic receptor, on M2 muscarinic receptor, at M3 muscarinic receptor and on M4 muscarinic receptor was less than 5.30 throughout. Also, the Emax at M1 muscarinic receptor (setting [1]) was 25 to 100%; on M2 muscarinic receptor (setting [2]) it was less than 25%; on M3 muscarinic receptor (setting [3]), less than 25%; on M4 muscarinic receptor (setting [4]), 25 to 100%.
Regarding `CC(=O)N[C@H]1CCC2(CCN(CC(=O)C(C)(C)C)CC2)c2ccccc21` [Compound No. 130, (S)-N-(1′-(3,3-dimethyl-2-oxobutyl)-3,4-dihydro-2H-spiro[naphthalene-1,4′-piperidine]-4-yl)acetamide], the pEC50 on M1 muscarinic receptor is 5.30 to 5.70; on M2 muscarinic receptor, less than 5.30; on M3 muscarinic receptor, less than 5.30; at M4 muscarinic receptor, greater than 5.70. Moreover, the Emax was 25 to 100% on M1 muscarinic receptor (setting [1]), less than 25% at M2 muscarinic receptor (setting [2]), less than 25% on M3 muscarinic receptor (setting [3]) and 25 to 100% at M4 muscarinic receptor (setting [4]).
Take `CC(=O)N[C@H]1CCC2(CCN(CCC(C)(C)C)CC2)c2ccccc21` [Compound No. 190, (S)-N-(1′-(3,3-dimethylbutyl)-3,4-dihydro-2H -spiro[naphthalene-1,4′-piperidine]-4-yl)acetamide]: at M1 muscarinic receptor, the “M1 Activity” value is “+++ (activity was measured to be less than 2.0 μM)”. The Emax was 25 to 100% on M1 muscarinic receptor (setting [5]), 25 to 100% at M2 muscarinic receptor (setting [5]), less than 25% at M3 muscarinic receptor (setting [5]) and 25 to 100% on M4 muscarinic receptor (setting [5]). In addition, on M2 muscarinic receptor, the “M2 Activity” value is on record as “+++ (activity was measured to be less than 2.0 μM)”. Further, the “M3 Activity” value on M3 muscarinic receptor (CHO cells expressing M3, FLIPR calcium assay) is given as “+ (activity was measured to be greater than 5.0 μM)”. In addition, the “M4 Activity” value on M4 muscarinic receptor is listed as “+++ (activity was measured to be less than 2.0 μM)”.
For `CC(C)(C)CCN1CCC2(CC[C@H](NS(C)(=O)=O)c3ccccc32)CC1` [compound 1], the pEC50 is greater than 5.70 at M1 muscarinic receptor, 5.30 to 5.70 on M2 muscarinic receptor, less than 5.30 at M3 muscarinic receptor and greater than 5.70 at M4 muscarinic receptor. Besides, the Emax on M1 muscarinic receptor (setting [1]) was 25 to 100%; on M2 muscarinic receptor (setting [2]), less than 25%; on M3 muscarinic receptor (setting [3]), less than 25%; at M4 muscarinic receptor (setting [4]), 25 to 100%.
Regarding `Cc1cc(C(=O)N[C@H]2CCC3(CCN(CCC(C)(C)C)CC3)c3cc(F)ccc32)nn1C` [compound 2], the pEC50 at M1 muscarinic receptor is greater than 5.70; on M2 muscarinic receptor, greater than 5.70; on M3 muscarinic receptor, less than 5.30; at M4 muscarinic receptor it was greater than 5.70. The Emax at M1 muscarinic receptor (setting [1]) is 25 to 100%; at M2 muscarinic receptor (setting [2]) it was 25 to 100%; at M3 muscarinic receptor (setting [3]) it was less than 25%; on M4 muscarinic receptor (setting [4]), 25 to 100%.
Turning to `CC(C)(C)CCN1CCC2(CC[C@@H](NC(=O)C3CC3)c3ccccc32)CC1` [compound 3], the pEC50 at M1 muscarinic receptor was less than 5.30; at M2 muscarinic receptor, less than 5.30; on M3 muscarinic receptor it was less than 5.30; on M4 muscarinic receptor, greater than 5.70. Moreover, the Emax is less than 25% on M1 muscarinic receptor (setting [1]), less than 25% at M2 muscarinic receptor (setting [2]), less than 25% at M3 muscarinic receptor (setting [3]) and 25 to 100% at M4 muscarinic receptor (setting [4]).
`CCCCN1CCC2(CC[C@H](NC(C)=O)c3ccccc32)CC1` [compound 4]: the pEC50 was 5.30 to 5.70 on M1 muscarinic receptor, less than 5.30 on M2 muscarinic receptor, less than 5.30 at M3 muscarinic receptor and 5.30 to 5.70 on M4 muscarinic receptor. Also, the Emax at M1 muscarinic receptor (setting [1]) was 25 to 100%; on M2 muscarinic receptor (setting [2]), less than 25%; on M3 muscarinic receptor (setting [3]), less than 25%; on M4 muscarinic receptor (setting [4]) it was 25 to 100%.
For `CCC(=O)N1CCCCC1C(=O)N[C@@H]1CCC2(CCN(CCC(C)(C)C)CC2)c2ccccc21` (stereo partly shown) [compound 5], the pEC50 on M1 muscarinic receptor was 5.30 to 5.70; on M2 muscarinic receptor, 5.30 to 5.70; on M3 muscarinic receptor, less than 5.30; at M4 muscarinic receptor, greater than 5.70. Further, the Emax at M1 muscarinic receptor (setting [1]) was less than 25%; at M2 muscarinic receptor (setting [2]), less than 25%; on M3 muscarinic receptor (setting [3]), less than 25%; at M4 muscarinic receptor (setting [4]), 25 to 100%.
Consider `C[C@H](N[C@H]1CC2(CCN(C(=O)OC(C)(C)C)CC2)c2ccccc21)c1ccccc1` [compound 275], for which, on M1 muscarinic receptor, the “M1 Activity” value is listed as “+ (activity was measured to be greater than 5.0 μM)”. Further, the Emax at M1 muscarinic receptor (setting [5]), at M2 muscarinic receptor (setting [5]) and on M4 muscarinic receptor (setting [5]) was less than 25% throughout. In addition, the “M2 Activity” value on M2 muscarinic receptor is recorded as “+ (activity was measured to be greater than 5.0 μM)”. Further, the “M4 Activity” value on M4 muscarinic receptor was “+ (activity was measured to be greater than 5.0 μM)”.
